Data from paper PMC5031509 (ACS chemical neuroscience, 2016).

Key:
CYP2D6 = CYP2D6 (Homo sapiens, UniProt P10635); test: CYP450 inhibition, cocktail approach in human liver microsomes; assay type: in vitro ADME
Met ID = assay type: in vitro ADME; conditions: rat liver microsomes
[1] = plasma protein binding, mouse; assay type: in vitro ADME
CYP2C19 = CYP2C19 (Homo sapiens, UniProt P33261); test: CYP450 inhibition; assay type: in vitro ADME
[2] = test system: panel of GPCRs, enzymes, ion channels, nuclear hormone receptors and transporters; test: wider selectivity panel; conditions: all targets except MAO-B
rat mGlu4 = rat mGlu4 (Rattus norvegicus, UniProt P31423); test: functional assay using the rat mGlu4 protein; assay type: cell-based
Sequence of rat mGlu4 (P31423 33-912): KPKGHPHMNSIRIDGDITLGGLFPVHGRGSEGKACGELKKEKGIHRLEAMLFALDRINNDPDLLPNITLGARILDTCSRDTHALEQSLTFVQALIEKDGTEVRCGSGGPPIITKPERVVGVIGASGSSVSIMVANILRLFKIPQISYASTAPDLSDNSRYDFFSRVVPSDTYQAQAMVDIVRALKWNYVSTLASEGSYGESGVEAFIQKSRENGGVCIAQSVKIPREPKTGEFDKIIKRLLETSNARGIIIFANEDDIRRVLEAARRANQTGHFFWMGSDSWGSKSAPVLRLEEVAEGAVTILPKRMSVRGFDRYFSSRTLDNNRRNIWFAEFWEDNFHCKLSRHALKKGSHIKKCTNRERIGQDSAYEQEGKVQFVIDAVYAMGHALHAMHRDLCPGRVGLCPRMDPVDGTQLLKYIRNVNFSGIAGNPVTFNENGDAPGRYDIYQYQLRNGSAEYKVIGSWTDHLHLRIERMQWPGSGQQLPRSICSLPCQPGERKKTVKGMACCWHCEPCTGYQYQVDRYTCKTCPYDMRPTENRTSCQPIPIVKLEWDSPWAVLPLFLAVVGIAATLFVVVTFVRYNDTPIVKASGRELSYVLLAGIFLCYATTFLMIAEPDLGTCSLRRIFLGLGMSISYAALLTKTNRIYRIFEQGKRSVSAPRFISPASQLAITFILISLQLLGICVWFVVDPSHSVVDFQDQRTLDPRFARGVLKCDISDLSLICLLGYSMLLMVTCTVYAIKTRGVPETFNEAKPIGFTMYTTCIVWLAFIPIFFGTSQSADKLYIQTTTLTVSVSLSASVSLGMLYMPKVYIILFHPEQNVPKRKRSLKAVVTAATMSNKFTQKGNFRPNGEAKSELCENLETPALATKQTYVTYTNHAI

CYP2C9 = CYP2C9 (Homo sapiens, UniProt P11712); test: CYP450 inhibition, cocktail approach in human liver microsomes; assay type: in vitro ADME
Sequence of CYP2C9 (P11712 whole entry): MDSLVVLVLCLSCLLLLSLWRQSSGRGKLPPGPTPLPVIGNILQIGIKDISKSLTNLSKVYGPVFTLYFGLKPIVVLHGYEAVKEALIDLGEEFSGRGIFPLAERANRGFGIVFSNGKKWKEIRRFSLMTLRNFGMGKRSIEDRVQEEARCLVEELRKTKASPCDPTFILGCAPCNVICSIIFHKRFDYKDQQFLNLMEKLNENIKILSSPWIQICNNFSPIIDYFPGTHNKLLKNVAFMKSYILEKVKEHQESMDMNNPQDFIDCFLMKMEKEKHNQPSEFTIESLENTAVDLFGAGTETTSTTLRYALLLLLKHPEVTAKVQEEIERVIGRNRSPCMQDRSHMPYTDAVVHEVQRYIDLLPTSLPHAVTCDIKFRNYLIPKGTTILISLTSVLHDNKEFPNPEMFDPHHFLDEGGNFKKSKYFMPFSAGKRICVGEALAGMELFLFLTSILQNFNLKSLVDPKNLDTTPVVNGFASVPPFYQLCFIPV

CYP3A4 = CYP3A4 (Homo sapiens, UniProt P08684); test: as above; assay type: in vitro ADME
Sequence of CYP3A4 (P08684 whole entry): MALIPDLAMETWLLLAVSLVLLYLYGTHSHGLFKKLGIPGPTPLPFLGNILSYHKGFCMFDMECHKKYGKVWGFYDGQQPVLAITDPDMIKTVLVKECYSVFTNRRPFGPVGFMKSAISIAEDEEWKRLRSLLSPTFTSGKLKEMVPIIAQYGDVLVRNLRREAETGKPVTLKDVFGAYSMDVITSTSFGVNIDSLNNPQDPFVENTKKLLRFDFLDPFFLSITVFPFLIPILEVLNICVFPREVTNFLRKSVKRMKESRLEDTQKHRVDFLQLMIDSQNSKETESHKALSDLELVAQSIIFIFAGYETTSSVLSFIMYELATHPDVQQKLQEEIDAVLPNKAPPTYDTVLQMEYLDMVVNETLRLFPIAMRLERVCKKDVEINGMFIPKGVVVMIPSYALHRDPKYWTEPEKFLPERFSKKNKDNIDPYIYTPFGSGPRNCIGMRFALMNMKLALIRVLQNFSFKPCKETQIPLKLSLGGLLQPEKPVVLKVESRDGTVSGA

[3] = plasma protein binding, dog; assay type: in vitro ADME
in vivo [4] = conditions: rat, po, 10 mg/kg
[5] = plasma protein binding, human; assay type: in vitro ADME
CYP1A2 [6] = test: CYP1A2 induction in cryopreserved hepatocytes; assay type: cell-based, human
in vivo [7] = conditions: rat, iv, 1 mg/kg
[8] = plasma/brain PO snapshot study in rats; assay type: in vivo, rat
[9] = in vivo PK, rhesus IV cassette; conditions: rhesus monkey, plasma
[10] = plasma protein binding, rhesus; assay type: in vitro ADME; conditions: rhesus monkey
[11] = target: T1, monoamine oxidase-B (MAO-B) (Homo sapiens, UniProt P27338); test: wider selectivity panel, MAO-B
T1 sequence (P27338 1-520): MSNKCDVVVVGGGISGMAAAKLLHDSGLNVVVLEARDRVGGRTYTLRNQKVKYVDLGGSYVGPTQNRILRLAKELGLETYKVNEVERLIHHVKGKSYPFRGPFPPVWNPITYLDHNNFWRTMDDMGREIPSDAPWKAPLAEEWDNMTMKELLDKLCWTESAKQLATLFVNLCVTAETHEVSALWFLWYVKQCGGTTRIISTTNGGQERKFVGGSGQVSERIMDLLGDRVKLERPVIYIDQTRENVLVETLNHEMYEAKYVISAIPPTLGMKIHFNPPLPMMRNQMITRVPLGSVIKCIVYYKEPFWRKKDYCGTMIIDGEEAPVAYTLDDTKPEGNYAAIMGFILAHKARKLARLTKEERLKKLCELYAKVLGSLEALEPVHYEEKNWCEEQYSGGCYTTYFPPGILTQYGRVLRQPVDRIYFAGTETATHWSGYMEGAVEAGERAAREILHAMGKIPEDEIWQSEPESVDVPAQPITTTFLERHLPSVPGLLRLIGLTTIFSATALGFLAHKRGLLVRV

mGlu6 = mGlu6 (Homo sapiens, UniProt O15303); test: mGlu selectivity assays in fold-shift format; assay type: cell-based
Sequence of mGlu6 (O15303 25-877): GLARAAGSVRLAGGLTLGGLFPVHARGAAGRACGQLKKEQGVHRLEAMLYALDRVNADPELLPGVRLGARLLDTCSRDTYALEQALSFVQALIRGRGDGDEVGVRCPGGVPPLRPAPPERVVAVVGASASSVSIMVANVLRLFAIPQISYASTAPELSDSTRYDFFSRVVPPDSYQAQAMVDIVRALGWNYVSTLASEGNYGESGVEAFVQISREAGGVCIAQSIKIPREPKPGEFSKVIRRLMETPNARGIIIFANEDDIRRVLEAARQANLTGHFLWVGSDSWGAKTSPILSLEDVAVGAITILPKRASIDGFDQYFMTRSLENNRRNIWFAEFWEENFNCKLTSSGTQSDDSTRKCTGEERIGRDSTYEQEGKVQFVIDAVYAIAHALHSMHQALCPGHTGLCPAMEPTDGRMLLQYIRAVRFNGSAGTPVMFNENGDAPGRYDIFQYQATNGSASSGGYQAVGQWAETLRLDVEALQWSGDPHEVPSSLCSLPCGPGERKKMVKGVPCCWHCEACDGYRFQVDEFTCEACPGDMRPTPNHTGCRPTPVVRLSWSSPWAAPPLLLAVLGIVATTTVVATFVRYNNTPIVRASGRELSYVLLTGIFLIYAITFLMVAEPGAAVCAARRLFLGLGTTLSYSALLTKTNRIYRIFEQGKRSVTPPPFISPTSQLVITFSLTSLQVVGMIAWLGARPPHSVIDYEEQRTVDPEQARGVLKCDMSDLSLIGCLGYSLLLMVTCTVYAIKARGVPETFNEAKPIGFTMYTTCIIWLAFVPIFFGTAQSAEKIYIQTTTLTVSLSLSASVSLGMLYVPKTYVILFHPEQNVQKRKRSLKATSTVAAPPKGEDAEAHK

[12] = test system: panel of 96 kinase targets; test: DiscoveRx KINOMEscan kinase panel; assay type: binding
[13] = plasma protein binding, rat; assay type: in vitro ADME
CYP1A2 [14] = target: T2, CYP1A2 (Homo sapiens, UniProt P05177); test: CYP450 inhibition, cocktail approach in human liver microsomes; assay type: in vitro ADME
T2 sequence (P05177 1-516): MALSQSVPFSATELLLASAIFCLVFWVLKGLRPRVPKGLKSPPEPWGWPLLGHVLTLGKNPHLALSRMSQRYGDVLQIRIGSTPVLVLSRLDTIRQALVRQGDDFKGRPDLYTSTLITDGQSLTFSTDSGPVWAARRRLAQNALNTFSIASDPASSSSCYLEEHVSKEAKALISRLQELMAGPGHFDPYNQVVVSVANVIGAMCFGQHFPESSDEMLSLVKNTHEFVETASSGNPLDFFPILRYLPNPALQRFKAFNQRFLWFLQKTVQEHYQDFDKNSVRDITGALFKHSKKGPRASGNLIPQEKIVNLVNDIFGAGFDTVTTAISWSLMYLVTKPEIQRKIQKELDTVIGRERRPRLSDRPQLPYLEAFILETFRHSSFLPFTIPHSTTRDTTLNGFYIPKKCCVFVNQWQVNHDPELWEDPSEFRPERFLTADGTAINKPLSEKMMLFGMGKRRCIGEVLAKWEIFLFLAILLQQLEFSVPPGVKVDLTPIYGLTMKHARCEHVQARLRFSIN

P-glycoprotein (Pgp) = P-glycoprotein (Pgp) (Homo sapiens, UniProt P08183); test: Permeability; assay type: in vitro ADME
Sequence of P-glycoprotein (Pgp) (P08183 whole entry): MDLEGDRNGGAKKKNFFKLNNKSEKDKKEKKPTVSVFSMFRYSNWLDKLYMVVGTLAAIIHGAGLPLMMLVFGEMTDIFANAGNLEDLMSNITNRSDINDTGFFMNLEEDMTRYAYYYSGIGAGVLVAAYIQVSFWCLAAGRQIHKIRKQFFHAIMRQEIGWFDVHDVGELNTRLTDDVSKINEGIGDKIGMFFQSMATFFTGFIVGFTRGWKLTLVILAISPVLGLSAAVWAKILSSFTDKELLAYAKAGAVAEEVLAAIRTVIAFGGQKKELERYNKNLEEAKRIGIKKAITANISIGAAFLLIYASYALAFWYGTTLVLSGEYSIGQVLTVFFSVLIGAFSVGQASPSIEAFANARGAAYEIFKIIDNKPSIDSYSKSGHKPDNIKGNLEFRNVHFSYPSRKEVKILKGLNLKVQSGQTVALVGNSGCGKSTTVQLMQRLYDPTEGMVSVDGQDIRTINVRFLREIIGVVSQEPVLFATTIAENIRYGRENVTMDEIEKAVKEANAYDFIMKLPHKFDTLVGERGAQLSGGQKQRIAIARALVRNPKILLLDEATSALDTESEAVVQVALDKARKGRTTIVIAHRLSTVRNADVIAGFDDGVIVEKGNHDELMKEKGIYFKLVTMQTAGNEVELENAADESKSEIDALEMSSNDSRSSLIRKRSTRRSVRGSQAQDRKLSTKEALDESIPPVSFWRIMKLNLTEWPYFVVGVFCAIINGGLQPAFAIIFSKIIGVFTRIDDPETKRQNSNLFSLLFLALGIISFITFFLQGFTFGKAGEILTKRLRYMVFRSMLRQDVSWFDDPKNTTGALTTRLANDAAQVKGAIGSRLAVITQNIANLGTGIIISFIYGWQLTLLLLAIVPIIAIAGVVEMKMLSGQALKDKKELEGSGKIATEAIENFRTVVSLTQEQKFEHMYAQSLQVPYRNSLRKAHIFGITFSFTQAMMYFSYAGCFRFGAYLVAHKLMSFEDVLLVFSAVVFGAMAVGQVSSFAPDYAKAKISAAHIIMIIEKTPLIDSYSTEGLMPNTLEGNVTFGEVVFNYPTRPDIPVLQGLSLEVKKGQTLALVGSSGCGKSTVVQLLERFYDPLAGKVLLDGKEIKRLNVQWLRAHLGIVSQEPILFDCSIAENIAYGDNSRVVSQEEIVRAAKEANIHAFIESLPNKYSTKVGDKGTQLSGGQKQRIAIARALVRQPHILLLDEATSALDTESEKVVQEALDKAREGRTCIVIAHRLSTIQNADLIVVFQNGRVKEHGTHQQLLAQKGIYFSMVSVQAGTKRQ

[15] = test system: nine cardiac ion channels (including hERG); test: ChanTest Cardiac Channel Panel IC50 screen; conditions: human

Sequence of CYP2C19 (P33261 whole entry): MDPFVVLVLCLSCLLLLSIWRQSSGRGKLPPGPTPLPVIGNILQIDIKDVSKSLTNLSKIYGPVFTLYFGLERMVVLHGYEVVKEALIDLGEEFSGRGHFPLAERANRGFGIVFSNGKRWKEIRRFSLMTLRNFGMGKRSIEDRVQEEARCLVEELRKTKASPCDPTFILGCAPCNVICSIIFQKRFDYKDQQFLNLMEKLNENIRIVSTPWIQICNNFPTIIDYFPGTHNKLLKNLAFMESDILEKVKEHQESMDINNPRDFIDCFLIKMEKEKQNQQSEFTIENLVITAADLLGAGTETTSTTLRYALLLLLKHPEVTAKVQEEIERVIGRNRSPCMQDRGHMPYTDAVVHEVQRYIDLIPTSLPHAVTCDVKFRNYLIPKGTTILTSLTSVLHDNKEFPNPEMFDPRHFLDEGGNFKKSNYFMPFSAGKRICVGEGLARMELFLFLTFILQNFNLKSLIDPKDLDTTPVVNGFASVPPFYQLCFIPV
Sequence of CYP2D6 (P10635 whole entry): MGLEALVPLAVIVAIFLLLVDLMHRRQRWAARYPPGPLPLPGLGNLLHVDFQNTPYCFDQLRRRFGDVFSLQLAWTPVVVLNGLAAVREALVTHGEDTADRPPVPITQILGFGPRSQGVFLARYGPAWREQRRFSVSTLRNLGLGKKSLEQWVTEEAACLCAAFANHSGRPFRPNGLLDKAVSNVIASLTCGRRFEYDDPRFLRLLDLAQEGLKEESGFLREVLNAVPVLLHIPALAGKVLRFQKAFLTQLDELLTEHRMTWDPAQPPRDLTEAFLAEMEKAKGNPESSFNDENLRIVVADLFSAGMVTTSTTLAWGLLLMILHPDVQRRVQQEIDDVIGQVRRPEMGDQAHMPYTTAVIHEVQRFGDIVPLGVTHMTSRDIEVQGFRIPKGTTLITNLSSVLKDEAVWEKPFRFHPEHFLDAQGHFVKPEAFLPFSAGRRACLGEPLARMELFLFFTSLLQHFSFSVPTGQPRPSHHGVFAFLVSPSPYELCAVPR

With `Fc1ccc(Nc2n[nH]c3cccnc23)cc1Cl` [Compound 26, N-(3-chloro-4-fluorophenyl)-1H-pyrazolo[4,3-b]pyridin-3-amine] the IC50 (CYP2D6) was over 30 µM, the major metabolite (Met ID) was “oxodefluorination” and the fraction unbound [1] was 0.019. For the same compound, the IC50 (CYP2C19) was 6.1 µM, the “activity against wider panel of targets” value [2] was “inactive” and the EC50 (rat mGlu4) was 0.046 µM. For the same compound, the IC50 (CYP2C9) was 8.9 µM, the IC50 (CYP3A4) was over 30 µM and the fraction unbound [3] was 0.009. The mini-AMES result (TA98 and TA100) was “negative”, the bioavailability (in vivo [4]; in vivo) was 95% and the AUC (in vivo [4]; plasma) was 7420 ng·h/mL. The Cmax (in vivo [4]; plasma) was 875 ng/mL, the Tmax (in vivo [4]; plasma) was 2 h and the “plasma protein binding (%Fu)” value [5] was 1.7%. For the same compound, the fraction unbound ([5]; plasma) was 0.017, the “CYP1A2 induction Emax” value (CYP1A2 [6]) was 104 fold-induction and the EC50 (CYP1A2 [6]; human) was 9.8 µM. The AUC (in vivo [7]) was 608 ng·h/mL, the MRT (in vivo [7]) was 2.2 h and the Vd (in vivo [7]) was 4 L/kg. The clearance (in vivo [7]) was 29 mL/min/kg, the half-life (in vivo [7]) was 1.52 h and the “brain AUC” value ([8]; rat CNS PO PBL (0−6 h)) was 18 415 ng·h/mL. For the same compound, the Kp at 6 h ([8]; rat, brain/plasma, po) was 2.1, the AUC ([8]; rat, plasma, po) was 8770 ng·h/mL and the clearance [9] was 13 mL/min/kg. The half-life [9] was 3 h, the fraction unbound [10] was 0.014 and the “activity against MAO-B” value [11] was 330 nM. For the same compound, the “activity at mGlu6” value (mGlu6) was “functionally interact (with equipotency)”, the “activity against 96 kinase targets” value [12] was under 30% and the fraction unbound ([13]; plasma protein binding (%Fu)) was 0.028. For the same compound, the fraction unbound ([13]; plasma protein binding (Fu), rat plasma, fraction unbound) was 0.028, the IC50 (CYP1A2 [14]) was under 0.1 µM and the “substrate for P-glycoprotein” value (P-glycoprotein (Pgp)) was “not a substrate”. It also gave a Papp A→B (P-glycoprotein (Pgp); not told) of 24 ×10⁻⁶ cm/s, a Papp B→A (P-glycoprotein (Pgp); not told) of 14 ×10⁻⁶ cm/s and an IC50 [15] of over 100 µM.
